# Data as given in patent US5158939A, “Method of stimulating the immune systems of animals and compositions useful therefor” (priority 1990, dated 1992).
# System: endotoxin
# Assay: Protection of mice against lethal endotoxin challenge
# Type: in vivo
# Details: compared with lipid X as reported in the literature
# Procedure: The lethal dose of E. coli endotoxin was determined both for the intravenous and for the intraperitoneal challenge. […] (It is important to standardize each lot of endotoxin with each lot of mice.) To determine the approximate dose of lipid A derivative needed to protect against a lethal challenge of endotoxin, mice are pretreated with the lipid A derivative intraperitoneally 2 hours before challenge with 1500 μg of endotoxin, which is 3 times the LD100 dose. Pretreatment of mice with the lipid A derivative appeared to prolong the time to death.
smiles,measurement,value
CCCCCCC=CCCCCCC(=O)OC(CCCCCCCCCCC)CC(=O)NC1C(OCC2OC(OP(=O)(O)O)C(NC(=O)CC(=O)CCCCCCCCCCC)C(OC(=O)CC(O)CCCCCCC)C2O)OC(CO)C(OP(=O)(O)O)C1OC(=O)CC(O)CCCCCCC (stereo not shown) [DPLA],protection of mice against a lethal dose of endotoxin,more effective than lipid X
